Measured values from the NIST ThermoML archive (doi:10.1016/j.fluid.2010.03.001).
± gives the expanded uncertainty stated by the source.

Legend:
[1] = Liquid; for viscosity / mass density: 101.33 kPa; for viscosity: Concentric cylinders viscometry; for mass density: Vibrating tube method; for vapor or sublimation pressure: Ebulliometric method (Recirculating still)
[2] = xn = mol fraction of the nth substance listed; settings: 101 kPa, Liquid, x1 = 1; for viscosity: Concentric cylinders viscometry; for mass density: Vibrating tube method

Row | Compound | viscosity ([1]; 293.15 K) [mPa·s] | viscosity ([1]; 298.15 K) [mPa·s] | mass density ([1]; 298.15 K) [kg/m3] | viscosity ([1]; 303.15 K) [mPa·s] | mass density ([1]; 303.15 K) [kg/m3] | viscosity ([1]; 313.15 K) [mPa·s] | mass density ([1]; 313.15 K) [kg/m3] | viscosity ([1]; 323.15 K) [mPa·s] | mass density ([1]; 323.15 K) [kg/m3] | viscosity ([1]; 333.15 K) [mPa·s] | mass density ([1]; 333.15 K) [kg/m3] | viscosity ([1]; 343.15 K) [mPa·s] | mass density ([1]; 343.15 K) [kg/m3] | viscosity ([1]; 353.15 K) [mPa·s] | mass density ([1]; 353.15 K) [kg/m3] | viscosity ([1]; 363.15 K) [mPa·s] | mass density ([1]; 363.15 K) [kg/m3] | viscosity ([1]; 373.15 K) [mPa·s] | mass density ([1]; 373.15 K) [kg/m3] | further results
1 | CCCCCO [pentan-1-ol] | 4.03 ± 0.04 | 3.48 ± 0.04 | 810.7 ± 0.3 | 3.02 ± 0.03 | 807.2 ± 0.3 | 2.315 ± 0.024 | 799.8 ± 0.3 | 1.801 ± 0.019 | 792.2 ± 0.3 | 1.425 ± 0.015 | 784.3 ± 0.3 | 1.146 ± 0.013 | 776.3 ± 0.3 | 0.935 ± 0.011 | 768 ± 0.3 | 0.772 ± 0.009 | 759.5 ± 0.3 | 0.647 ± 0.008 | 750.6 ± 0.3 | mass density ([1]; 293.15 K): 814.7 ± 0.3 kg/m3; vapor or sublimation pressure ([1]; 328.15 K): 2.3 ± 0.1 kPa; vapor or sublimation pressure ([1]; 329.5 K): 2.5 ± 0.1 kPa; vapor or sublimation pressure ([1]; 333.15 K): 3.1 ± 0.1 kPa; vapor or sublimation pressure ([1]; 338.15 K): 4.2 ± 0.1 kPa; vapor or sublimation pressure ([1]; 341.2 K): 5 ± 0.1 kPa; vapor or sublimation pressure ([1]; 343.15 K): 5.6 ± 0.1 kPa; vapor or sublimation pressure ([1]; 348.75 K): 7.5 ± 0.1 kPa; vapor or sublimation pressure ([1]; 354.37 K): 10 ± 0.1 kPa; vapor or sublimation pressure ([1]; 362.63 K): 15 ± 0.1 kPa; vapor or sublimation pressure ([1]; 368.86 K): 20 ± 0.1 kPa; vapor or sublimation pressure ([1]; 378.2 K): 30 ± 0.1 kPa; vapor or sublimation pressure ([1]; 385.33 K): 40 ± 0.1 kPa; vapor or sublimation pressure ([1]; 391.03 K): 50 ± 0.1 kPa; vapor or sublimation pressure ([1]; 395.87 K): 60 ± 0.2 kPa; vapor or sublimation pressure ([1]; 400.1 K): 70 ± 0.2 kPa; vapor or sublimation pressure ([1]; 403.86 K): 80 ± 0.2 kPa; vapor or sublimation pressure ([1]; 407.25 K): 90 ± 0.2 kPa; vapor or sublimation pressure ([1]; 408.9 K): 95.1 ± 0.2 kPa
2 | CCCCCO [pentan-1-ol] + C=C(C)[C@H]1CC=C(C)CC1 | – | – | – | – | – | – | – | – | – | – | – | – | – | – | – | – | – | – | – | viscosity ([2]; 293.15 K): 4.03 ± 0.04 mPa·s; mass density ([2]; 293.15 K): 814.7 ± 0.3 kg/m3; viscosity ([2]; 303.15 K): 3.02 ± 0.03 mPa·s; mass density ([2]; 303.15 K): 807.2 ± 0.3 kg/m3; viscosity ([2]; 313.15 K): 2.315 ± 0.024 mPa·s; mass density ([2]; 313.15 K): 799.8 ± 0.3 kg/m3; viscosity ([2]; 323.15 K): 1.801 ± 0.019 mPa·s; mass density ([2]; 323.15 K): 792.2 ± 0.3 kg/m3; viscosity ([2]; 333.15 K): 1.425 ± 0.015 mPa·s; mass density ([2]; 333.15 K): 784.3 ± 0.3 kg/m3; viscosity ([2]; 343.15 K): 1.146 ± 0.013 mPa·s; mass density ([2]; 343.15 K): 776.3 ± 0.3 kg/m3; viscosity ([2]; 353.15 K): 0.935 ± 0.011 mPa·s; mass density ([2]; 353.15 K): 768 ± 0.3 kg/m3; viscosity ([2]; 363.15 K): 0.772 ± 0.009 mPa·s; mass density ([2]; 363.15 K): 759.5 ± 0.3 kg/m3; viscosity ([2]; 373.15 K): 0.647 ± 0.008 mPa·s; mass density ([2]; 373.15 K): 750.6 ± 0.3 kg/m3
3 | C=C(C)[C@H]1CC=C(C)CC1 [(R)-1-methyl-4-(1-methylethenyl)cyclohexene] | 0.902 ± 0.014 | 0.89 ± 0.014 | 837.3 ± 1 | 0.793 ± 0.013 | 833.6 ± 1 | 0.702 ± 0.011 | 825.8 ± 1 | 0.628 ± 0.01 | 817.9 ± 1 | 0.566 ± 0.01 | 809.9 ± 0.9 | 0.5 ± 0.009 | 801.9 ± 0.9 | 0.452 ± 0.008 | 793.6 ± 0.9 | 0.413 ± 0.008 | 785.4 ± 0.9 | 0.382 ± 0.007 | 777.1 ± 0.9 | –
